Laboratory results reported in patent US20150224164A1, “TREATMENT OF AUTISM SPECTRUM DISORDERS USING GLYCYL-L-2-METHYLPROLYL-L-GLUMATIC ACID” (Neuren Pharmaceuticals Limited, priority 2013, published 2015).
“Also recorded” adds a separate entry of the source. Where a SMILES comes first, the peptide text is derived from it.

Tests used:
[1] = Pharmacokinetics after intravenous bolus injection; type: in vivo, rat
Procedure: Adult male Wistar rats weighing between 180 and 240 g were used to determine the pharmacokinetics of GPE and G2MePE. To facilitate intravenous bolus injections and blood sampling, all rats were surgically implanted with an indwelling jugular venous cannula under halothane anesthesia three days before the experiment. Groups of six rats were given a single intravenous bolus injection of either 30 mg/kg GPE or 10 mg/kg G2MePE dissolved in 0.1M succinate buffer (pH 6.5). Blood samples (about 220 μl each) were collected into heparinized tubes containing Sigma protease inhibitor cocktail for mammalian tissues at 10 and 0 min before injection of either GPE or G2MePE, and 1, 2, 4, 8, 16, 32, 64 and 128 min after injection of either GPE or G2MePE. The samples were centrifuged at 3000 g for 15 min at 4° C. and the plasma removed and stored at −80° C. until extraction and assay by either radioimmunoassay (“RIA”) or reverse phase HPLC. The RIA and HPLC methods used were conventional.
The k and half-life (t1/2) were calculated from the slope of the linear regression line in the elimination phase of the semi-logarithmic plot of plasma concentration versus time as: Log C=−kt/2.3+log C0. Results were expressed as mean±standard error.

[2] = tested on: subjects with an Autism Spectrum Disorder; experiment: Placebo-controlled crossover study in subjects with Autism Spectrum Disorder (Example 16); type: in vivo, human
Source text: To determine whether G-2-MePE can treat symptoms of ASD, we carry out a study in human beings with ASD. Twenty subjects with an Autism Spectrum Disorder are recruited. Subjects are male and aged between 16 and 65 years (Mean=18.1 SD=3.4). All subjects have an IQ>60 and strict DSM-IV-TR diagnosis of Autistic Disorder or Asperger Disorder. Subjects also meet criteria for an Autism Spectrum Disorder according the ADI-R and ADOS-G instruments, and fulfill the proposed DSM-V criteria for and Autism Spectrum Disorder. Subjects are instructed that concomitant medications are to be stable for at least six weeks prior to study. Subjects receiving medication to treat signs of inattention are tested in the morning and instructed to take their medication in the afternoon. Subjects better treated with atypical anti-psychotic medications indicated for autism are excluded. Subjects are screened for known genetic disorders including and those with Fragile X Syndrome or tuberous sclerosis excluded. Subjects with uncontrolled epilepsy are excluded. The study is a double blind placebo-controlled crossover study with three phases. Subjects enter each phase of the crossover in a randomized order. In the test phases, subjects receive either placebo, 10 mg/kg T.I.D oral G-2-MePE for five days, or 30 mg/kg T.I.D. oral G-2-MePE. Each phase of the crossover is separated by a washout period of fourteen days. Subjects are tested at baseline using the following instruments: Wechsler IQ, Abberant Behavior Checklist Community Edition (ABC), […], Yale-Brown Obsessive Compulsive Scale (YBOCS) compulsion subscale, Social Responsiveness Scale (SRS), Clinical Global Impression of Severity (CGI-S) and their […] complete the Caregiver Strain Questionnaire (CSQ). Subjects are administered two tasks-the Reading the Mind in the Eyes Test-Revised (RMET) and an Eye Tracking (ET) task, as well as Clinical Global Impression of Improvement (CGI-I). Tasks commence two hours following administration of placebo or either dose of G-2-MePE. The RMET is a computer based task that assesses one's ability to read emotions from the eyes of subtle affective facial expressions and is a widely used test of emotion recognition in patients with autism (2001). Importantly, the RMET is capable of detecting improvement with even a single dose of a pharmacological agent (Guastella et al., 2010). Eye tracking issues are characteristic of patients with autism who spend less time looking at the eyes of photographs of human faces. Again, a single administration of a pharmacologic intervention can ameliorate eye tracking deficits in autism ([…] et al, 2010). Adverse events are also recorded using standard safety measures. Statistically, the effect of treatment with G-2-MePE is analysed by conducting a repeated analysis of covariance (ANCOVA) on the effect of treatment on change from baseline scores.

C[C@@]1(C(=O)N[C@@H](CCC(=O)O)C(=O)O)CCCN1C(=O)CN [Example G-2-MePE, Glycyl-L-2-methylprolyl-L-glutamic acid] (HELM PEPTIDE1{G.[C[C@@]1(C(=O)[*:2])CCCN1[*:1]].E}$$$$V2.0)
maximal plasma concentration relative to GPE ([1]; G-2-MePE 10 mg/kg vs GPE 30 mg/kg i.v.): about 4.8 times | t1/2 relative to GPE ([1]; i.v.): over 4 times | half-life ([1]; male, Wistar, rat, plasma, iv, single i.v. bolus, GPE 30 mg/kg, G-2-MePE 10 mg/kg): 20.7 ± 0.35 min | clearance ([1]; male, Wistar, rat, plasma, iv, single i.v. bolus, GPE 30 mg/kg, G-2-MePE 10 mg/kg, read-out: estimated clearance from plasma (converted)): 0.502 mL/min | first order rate constant ([1]; single i.v. bolus, GPE 30 mg/kg, G-2-MePE 10 mg/kg): 0.033 ± 0.001 min⁻¹ | peak plasma concentration ([1]; single i.v. bolus, GPE 30 mg/kg, G-2-MePE 10 mg/kg, mean±standard error): 191 ± 16.1 µg/mL | percent correct responses on the RMET ([2]; 30 mg/kg T.I.D. oral): increases the percent correct responses | Serious Adverse Events ([2]; 10 or 30 mg/kg T.I.D. oral): No Serious Adverse Events | adverse events / tolerability ([2]; 10 or 30 mg/kg T.I.D. oral): no more adverse events than were present during treatment with placebo; also recorded: well tolerated | performance of the RMET test, overall ([2]; human, in vivo): significant overall improvement | time spent looking at the eye region in the ET test ([2]; human, in vivo): significant overall improvement
